For 21 compounds, IC50 results are on record in patent US11524966B1 (Valo Early Discovery, Inc., priority 2017, dated 2022).

Each structure is given as a SMILES string. pIC50: −log10 of the molar value.

The target of this experiment is T1, USP28 (His-tagged USP28-FL-mammalian) (Homo sapiens, UniProt Q96RU2).
T1 construct: Expression of USP28 (1-1077)-TEV-6*His (pTT5 vector); made in house; host or cells: Expi293f cells (pTT5 vector)
T1 sequence (Q96RU2 1-1077): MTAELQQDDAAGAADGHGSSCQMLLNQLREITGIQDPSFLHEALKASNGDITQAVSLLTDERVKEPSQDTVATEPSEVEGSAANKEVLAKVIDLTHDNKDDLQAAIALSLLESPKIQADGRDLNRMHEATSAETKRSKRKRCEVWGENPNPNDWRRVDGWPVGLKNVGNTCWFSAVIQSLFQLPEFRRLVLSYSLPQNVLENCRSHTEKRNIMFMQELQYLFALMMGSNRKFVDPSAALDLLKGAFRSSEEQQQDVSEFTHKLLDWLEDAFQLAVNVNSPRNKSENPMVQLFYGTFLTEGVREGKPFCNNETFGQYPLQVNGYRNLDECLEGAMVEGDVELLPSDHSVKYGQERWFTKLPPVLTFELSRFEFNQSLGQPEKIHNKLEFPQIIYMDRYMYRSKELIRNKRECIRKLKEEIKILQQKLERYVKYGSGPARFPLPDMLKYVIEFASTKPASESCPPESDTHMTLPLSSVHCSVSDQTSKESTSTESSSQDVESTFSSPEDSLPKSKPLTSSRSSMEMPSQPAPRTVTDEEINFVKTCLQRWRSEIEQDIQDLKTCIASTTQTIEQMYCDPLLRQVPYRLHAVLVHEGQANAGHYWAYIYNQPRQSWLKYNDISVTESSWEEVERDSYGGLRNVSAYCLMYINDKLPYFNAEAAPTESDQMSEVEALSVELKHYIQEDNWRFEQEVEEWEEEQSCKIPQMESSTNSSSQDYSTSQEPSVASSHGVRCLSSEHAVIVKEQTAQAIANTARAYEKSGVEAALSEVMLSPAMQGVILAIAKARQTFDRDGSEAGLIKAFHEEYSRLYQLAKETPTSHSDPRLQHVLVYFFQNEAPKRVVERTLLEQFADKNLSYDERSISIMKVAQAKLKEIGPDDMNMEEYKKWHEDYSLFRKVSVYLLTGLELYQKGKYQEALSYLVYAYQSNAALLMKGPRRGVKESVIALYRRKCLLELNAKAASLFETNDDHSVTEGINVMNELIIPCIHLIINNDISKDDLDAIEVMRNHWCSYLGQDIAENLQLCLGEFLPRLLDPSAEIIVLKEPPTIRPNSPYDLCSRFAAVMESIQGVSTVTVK
The experiment is described as follows: Ubiquitin-Rhodamine 110 Assay for USP28 Activity, Example A-1(a). Type of experiment: biochemical. To be noted: Ubiquitin-Rhodamine 110 assay, Example A-1(a); read-out: USP28 A-1(a) IC50 range. In short, it runs like this: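 Full-length His-tagged USP28 (1-1077, Expi293F-expressed; […]) was preincubated 30 min with compound (25 μM–1.3 nM, 10-point 3-fold) in 20 mM Tris-HCl pH 8.0, 3 mM BME, 0.03% BGG, 0.01% Triton X-100. Ub-Rh110 (25 nM) was then added for 45 min at room temperature, stopped with citric acid, and read by fluorescence (485/535 nm).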
As for `Cc1ccc2c(N)c(C(=O)N[C@H]3COc4c(ccc(N5CC6CCC(C5)N6)c4F)C3)sc2n1` [Example 103, 3-amino-N-[(3R)-7-{3,8-diazabicyclo[3.2.1]octan-3-yl}-8-fluoro-3,4-dihydro-2H-1-benzopyran-3-yl]-6-methylthieno[2,3-b]pyridine-2-carboxamide], the pIC50 is 7.30 to 9.00.

As to `CO[C@H]1CN(c2cc3c(cc2F)C[C@@H](NC(=O)c2sc4nc(C)ccc4c2N)CO3)C[C@@H]1N` [Example 94, 3-amino-N-[(3R)-7-[(3S,4S)-3-amino-4-methoxypyrrolidin-1-yl]-6-fluoro-3,4-dihydro-2H-1-benzopyran-3-yl]-6-methylthieno[2,3-b]pyridine-2-carboxamide], the pIC50 was 7.30 to 9.00.

As to `Cc1ccc2c(N)c(C(=O)N[C@H]3CCc4c(ccc(N5CC6CNCC(C5)O6)c4F)C3)sc2n1` [Example 99, 3-amino-N-[(2S)-5-fluoro-6-{9-oxa-3,7-diazabicyclo[3.3.1]nonan-3-yl}-1,2,3,4-tetrahydronaphthalen-2-yl]-6-methylthieno[2,3-b]pyridine-2-carboxamide], the pIC50 was 7.30 to 9.00.

`COc1ccc2c(N)c(C(=O)N[C@H]3CCc4cc(N5C[C@H](OC)[C@@H](N)C5)ccc4C3)sc2n1` [Example 134, 3-amino-N-[(2S)-6-[(3S,4S)-3-amino-4-methoxypyrrolidin-1-yl]-1,2,3,4-tetrahydronaphthalen-2-yl]-6-methoxythieno[2,3-b]pyridine-2-carboxamide]: the negative logarithm of the IC50 (pIC50) was 5.70 to 6.70.

For the compound `Cc1ccc2c(N)c(C(=O)N[C@H]3COc4cc(N5C[C@H](N)[C@H](C(F)F)C5)ccc4C3)sc2n1` [Example 167, 3-amino-N-[(3R)-7-[(3R,4R)-3-amino-4-(difluoromethyl)pyrrolidin-1-yl]-3,4-dihydro-2H-1-benzopyran-3-yl]-6-methylthieno[2,3-b]pyridine-2-carboxamide], the pIC50 is 7.30 to 9.00.

Take `Cc1ccc2c(N)c(C(=O)N[C@H]3COc4cc(N5C[C@@H]6NCCO[C@@H]6C5)ccc4C3)sc2n1` [Example 153, N-[(3R)-7-[(4aS,7aR)-octahydropyrrolo[3,4-b]morpholin-6-yl]-3,4-dihydro-2H-1-benzopyran-3-yl]-3-amino-6-methylthieno[2,3-b]pyridine-2-carboxamide]: the pIC50 was 6.70 to 7.30.

Take `Cc1cnc2c(N)c(C(=O)N[C@H]3COc4c(F)c(N5CC6CCC(C5)N6)cc(F)c4C3)sc2n1` [Example 107, 7-amino-N-[(3R)-7-{3,8-diazabicyclo[3.2.1]octan-3-yl}-5,8-difluoro-3,4-dihydro-2H-1-benzopyran-3-yl]-3-methylthieno[2,3-b]pyrazine-6-carboxamide]: the pIC50 was 7.30 to 9.00.

Turning to `Cc1ccc2c(N)c(C(=O)N[C@H]3COc4nc(N5CC6CCC(C5)N6)ccc4C3)sc2n1` [Example 173, 3-amino-N-[(3R)-7-{3,8-diazabicyclo[3.2.1]octan-3-yl]-2H,3H,4H-pyrano[2,3-b]pyridin-3-yl]-6-methylthieno[2,3-b]pyridine-2-carboxamide], the pIC50 was 6.70 to 7.30.

Take `COC[C@H]1CN(c2ccc3c(c2)OC[C@H](NC(=O)c2sc4nc(C)ccc4c2N)C3)C[C@@H]1N` [Example 164, 3-amino-N-[(3R)-7-[(3R,4S)-3-amino-4-(methoxymethyl)pyrrolidin-1-yl]-3,4-dihydro-2H-1-benzopyran-3-yl]-6-methylthieno[2,3-b]pyridine-2-carboxamide]: the pIC50 is 7.30 to 9.00.

As for `Cc1nc2sc(C(=O)N[C@H]3COc4cc(N5CC6CCC(C5)N6)c(F)c(F)c4C3)c(N)c2s1` [Example 108, 6-amino-N-[(3R)-7-{3,8-diazabicyclo[3.2.1]octan-3-yl}-5,6-difluoro-3,4-dihydro-2H-1-benzopyran-3-yl]-2-methylthieno[2,3-d][1,3]thiazole-5-carboxamide], the pIC50 was 7.30 to 9.00.

In the case of `Cc1ccc2c(N)c(C(=O)N[C@H]3COc4cc(N5CC6CCC(C5)N6)cc(F)c4C3)oc2n1` [Example 170, 3-amino-N-[(3R)-7-{3,8-diazabicyclo[3.2.1]octan-3-yl}-5-fluoro-3,4-dihydro-2H-1-benzopyran-3-yl]-6-methylfuro[2,3-b]pyridine-2-carboxamide], the pIC50 was 5.70 to 6.70.

Regarding `COC[C@@H]1CNCCN1c1ccc2c(c1)OC[C@H](NC(=O)c1sc3nc(C)ccc3c1N)C2` [Example 155, 3-amino-N-[(3R)-7-[(2S)-2-(methoxymethyl)piperazin-1-yl]-3,4-dihydro-2H-1-benzopyran-3-yl]-6-methylthieno[2,3-b]pyridine-2-carboxamide], the pIC50 was 7.30 to 9.00.

As for `CO[C@H]1CN(c2ccc3c(c2)CC[C@H](NC(=O)c2sc4nc(C)ccc4c2N)C3)C[C@@H]1N` [Example 116, 3-amino-N-[(2S)-6-[(3S,4S)-3-amino-4-methoxypyrrolidin-1-yl}-1,2,3,4-tetrahydronaphthalen-2-yl]-6-methylthieno[2,3-b]pyridine-2-carboxamide], the pIC50 was 6.70 to 7.30.

As to `Cc1nc2sc(C(=O)N[C@H]3COc4c(F)c(N5CC6CCC(C5)N6)cc(F)c4C3)c(N)c2s1` [Example 98, 6-amino-N-[(3R)-7-{3,8-diazabicyclo[3.2.1]octan-3-yl}-5,8-difluoro-3,4-dihydro-2H-1-benzopyran-3-yl]-2-methylthieno[2,3-d][1, 3]thiazole-5-carboxamide], the pIC50 was 7.30 to 9.00.

In the case of `CCn1ccc2cc(C(=O)N[C@@H]3CCc4cc(N5C[C@H](OC)[C@@H](N)C5)cc(F)c4C3)nnc21` [Example 139, N-[(2R)-6-[(3S,4S)-3-amino-4-methoxypyrrolidin-1-yl]-8-fluoro-1,2,3,4-tetrahydronaphthalen-2-yl]-7-ethyl-7H-pyrrolo[2,3-c]pyridazine-3-carboxamide], the pIC50 is below 5.70.

For the compound `COC[C@@H]1CN(c2ccc3c(c2)OC[C@H](NC(=O)c2sc4nc(C)ccc4c2N)C3)CCN1` [Example 158, 3-amino-N-[(3R)-7-[(3S)-3-(methoxymethyl)piperazin-1-yl]-3,4-dihydro-2H-1-benzopyran-3-yl]-6-methylthieno[2,3-b]pyridine-2-carboxamide], the pIC50 was 6.70 to 7.30.

`COC[C@@H]1CN(c2ccc3c(c2)OC[C@H](NC(=O)c2sc4nc(C)ccc4c2N)C3)C[C@H]1N` [Example 163, 3-amino-N-[(3R)-7-[(3S,4R)-3-amino-4-(methoxymethyl)pyrrolidin-1-yl]-3,4-dihydro-2H-1-benzopyran-3-yl]-6-methylthieno[2,3-b]pyridine-2-carboxamide]: the pIC50 was 7.30 to 9.00.

With `CO[C@H]1CN(c2cc(F)c3c(c2C#N)OC[C@H](NC(=O)c2sc4nc(C)cnc4c2N)C3)C[C@@H]1N` [Example 174, 7-amino-N-[(3R)-7-[(3S,4S)-3-amino-4-methoxypyrrolidin-1-yl]-8-cyano-5-fluoro-3,4-dihydro-2H-1-benzopyran-3-yl]-3-methylthieno[2,3-b]pyrazine-6-carboxamide], the negative-log IC50 (pIC50) was 5.70 to 6.70.

Turning to `CO[C@H]1CN(c2ccc3c(c2)OC[C@H](NC(=O)c2sc4nc(C)cnc4c2N)C3)C[C@@H]1N` [Example 117, 7-amino-N-[(3R)-7-[(3S,4S)-3-amino-4-methoxypyrrolidin-1-yl]-3,4-dihydro-2H-1-benzopyran-3-yl]-3-methylthieno[2,3-b]pyrazine-6-carboxamide], the pIC50 is 7.30 to 9.00.

Consider `CO[C@H]1CN(c2ccc3c(c2)OC[C@H](NC(=O)c2sc4nc(C)sc4c2N)C3)C[C@@H]1N` [Example 118, 6-amino-N-[(3R)-7-[(3S,4S)-3-amino-4-methoxypyrrolidin-1-yl]-3,4-dihydro-2H-1-benzopyran-3-yl]-2-methylthieno[2,3-d][1,3]thiazole-5-carboxamide], for which the pIC50 is 6.70 to 7.30.

As for `CO[C@@H]1CN(c2ccc3c(c2)OC[C@H](NC(=O)c2sc4nc(C)sc4c2N)C3)C[C@@H]1N` [Example 149, 6-amino-N-[(3R)-7-[(3S,4R)-3-amino-4-methoxypyrrolidin-1-yl]-3,4-dihydro-2H-1-benzopyran-3-yl]-2-methylthieno[2,3-d][1,3]thiazole-5-carboxamide], the pIC50 is 7.30 to 9.00.
